In patent US20160015700A1, “4-CYANO-N-(2-(4,4-DIMETHYLCYCLOHEX-1-EN-1-YL)-6-(2,2,6,6-TETRAMETHYLTETRAHYDRO-2H-PYRAN-4-YL)PYRIDIN-3-YL)-1H-IMIDAZOLE-2-CARBOXAMIDE FOR THE TREATMENT OF HODGKIN'S LYMPHOMA” (JANSSEN PHARMACEUTICA NV, priority 2013, published 2016):

Tested on: classical Hodgkin's Lymphoma patient
Assay: Case study: treatment of a classical Hodgkin's Lymphoma patient, response by CT/MRI scan and PET scan (Cheson criteria)
Type: in vivo, human
Conditions: 150 mg orally 1 time a day, Cheson 2007 criteria
Procedure: A classical Hodgkin's Lymphoma patient, diagnosed with Stage II in Hodgkin Lymphoma in January 2006, and previously treated with radiotherapy and three different regimens of chemotherapy, including an autologous stem cell transplantation was treated with 150 mg of the compound of formula (I), administered orally 1 time a day. In addition to the compound of formula (I), the patient was taking the following medications and dosages: (a) DEKRISTOL (cholecalciferol), 20000 I.U. QOD for vitamin deficiency, (b) methylphenidate hydrochloride, 20 mg DAILY for fatigue, (c) ibuprofen, 600 mg PRN for back pain, and (d) VALORON N (tilidine) 50 IN 20 DROPS PRN for back pain.
Response to treatment was evaluated by tumor assessments using CT/MRI scan and PET scan, resulting in an individual response for each technique. In addition, an overall response evaluation was completed, taking into account both scan results. Response evaluations were completed according to the criteria as set forth in CHESON, B. D., et al., J. Clin. Oncology, 2007, pp579-586, Vol. 25(5).

## CC1(C)CC=C(c2nc(C3CC(C)(C)OC(C)(C)C3)ccc2NC(=O)c2nc(C#N)c[nH]2)CC1 [compound of formula (I), 4-cyano-N-(2-(4,4-dimethylcyclohex-1-en-1-yl)-6-(2,2,6,6-tetramethyltetrahydro-2H-pyran-4-yl)pyridin-3-yl)-1H-imidazole-2-carboxamide]
As of 13 Mar. 2013
  response status at later follow-up: still in complete response
Evaluated after 121 days of treatment, previously treated classical Hodgkin's Lymphoma patient
  overall response to treatment: complete response to treatment
